The record followed here is patent EP4603105A1, “PHARMACEUTICAL COMPOSITION CONTAINING CYCLIC COMPOUND HAVING SELECTIVE KRAS INHIBITORY EFFECT AGAINST HRAS AND NRAS” (CHUGAI SEIYAKU KABUSHIKI KAISHA, priority 2022, dated 2024).

Each structure is given as a SMILES string.

Test [1] deals with GDP-bound NRAS wild-type protein (Homo sapiens, UniProt P01111). As to the kind of experiment: Binding to NRAS by surface plasmon resonance (SPR), KD and KD ratio to KRAS. Conditions: ratio of KD for GDP-bound NRAS wild-type protein to KD for KRAS. The essentials:
(§1)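 Each cycle, GDP-bound biotin-Avi RAS was captured (~100–300 RU), compound concentrations were injected low to high for 75 s each at 100 µL/min, then the chip was regenerated. Buffer: HBS pH 7.4, 10 mM MgCl2, 10 µM GDP, 1 mM DTT, 4% DMSO; 30°C. KD from a 1:1 binding model.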
For orientation: SPR reads the build-up and loss of mass on a sensor chip optically.

The target of test [2] is GDP-bound KRAS wild-type protein (Homo sapiens, UniProt P01116). Briefly: Binding to KRAS by surface plasmon resonance (SPR), dissociation constant KD. Conditions: Single Cycle Kinetics. The essentials:
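Captured GDP-RAS (~100–300 RU) was exposed to increasing compound concentrations, 75 s per step, in running buffer with 10 µM GDP, 10 mM MgCl2 and 4% DMSO at pH 7.4.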

Test [3] deals with HRAS wild-type protein (Homo sapiens, UniProt P01112). Briefly: Binding to HRAS by surface plasmon resonance (SPR), KD and KD ratio to KRAS. Particulars: ratio of KD for HRAS wild-type protein to KD for KRAS. Put shortly:
as §1

For test [4], the system named is human lung cancer strain NCI-H441. The test is classed as cell-based. The essentials: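 Signal came from […] measured per well once the reagent was added. Beforehand, cells were cultured at 37°C and 5% carbon dioxide on a compound series serially diluted in dimethyl sulfoxide.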

HRAS wild-type protein, sequence (P01112 whole entry): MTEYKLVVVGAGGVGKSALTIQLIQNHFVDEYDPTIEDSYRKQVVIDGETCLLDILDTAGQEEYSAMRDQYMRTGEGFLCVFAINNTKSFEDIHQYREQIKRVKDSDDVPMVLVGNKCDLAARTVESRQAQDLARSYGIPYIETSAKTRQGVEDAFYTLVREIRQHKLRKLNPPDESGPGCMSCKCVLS
GDP-bound NRAS wild-type protein, sequence (P01111 whole entry): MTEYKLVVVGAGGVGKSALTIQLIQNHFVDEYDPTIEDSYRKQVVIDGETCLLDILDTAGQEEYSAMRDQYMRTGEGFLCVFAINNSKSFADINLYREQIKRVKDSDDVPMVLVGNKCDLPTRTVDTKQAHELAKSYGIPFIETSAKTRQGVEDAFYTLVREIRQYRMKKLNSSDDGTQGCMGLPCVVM
GDP-bound KRAS wild-type protein, sequence (P01116 1-188 isoform P01116-2): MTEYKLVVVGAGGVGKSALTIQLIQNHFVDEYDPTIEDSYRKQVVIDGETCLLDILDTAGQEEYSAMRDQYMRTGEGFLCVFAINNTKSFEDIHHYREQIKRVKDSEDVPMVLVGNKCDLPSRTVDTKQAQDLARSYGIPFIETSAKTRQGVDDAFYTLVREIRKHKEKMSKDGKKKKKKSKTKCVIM

The term Kd denotes the free concentration of one partner at which half of the binding sites on the other are occupied at equilibrium, for simple one-to-one binding. The term IC50 denotes the midpoint of a concentration-inhibition curve. Higher therefore signals weaker potency. As to `CCO[C@@H]1C[C@H]2C(=O)NC3(CCC3)C(=O)N(C)[C@@H](C3CCCC3)C(=O)N(C)[C@H](C(=O)N(C)C)CC(=O)N(C)[C@@H](CC)C(=O)N[C@@H]([C@@H](C)CC)C(=O)N(C)CC(=O)N(C)[C@H]3CCCCCN(C3=O)[C@@H](Cc3ccc(F)cc3Cl)C(=O)N(C)CC(=O)N[C@@H](CCc3cc(F)c(C(F)(F)F)c(F)c3)C(=O)N2C1` [PP0908], in test [1], the “NRAS /KRAS” value was “B (a compound having 3 or more and less than 10 is denoted as B)”. Moreover, binding in test [2] was put at a Kd of 0.19 nM. Besides, in test [3], the “HRAS /KRAS” value is “B (a compound having 3 or more and less than 10 is denoted as B)”. Besides, inhibition in test [4] was half-maximal at 38.5 nM (IC50).
On to `CCO[C@@H]1C[C@H]2C(=O)NC3(CCC3)C(=O)N(C)[C@@H](C3CCCC3)C(=O)N(C)[C@H](C(=O)N(C)C)CC(=O)N(C)[C@@H](CC)C(=O)N[C@@H]([C@@H](C)CC)C(=O)N(C)CC(=O)N(C)[C@H]3CCCCCN(C3=O)[C@@H](Cc3ccc4ccsc4c3)C(=O)N(C)CC(=O)N[C@@H](CCc3cc(F)c(C(F)(F)F)c(F)c3)C(=O)N2C1` [PP0910], for which the “NRAS /KRAS” value in test [1] was “B (a compound having 3 or more and less than 10 is denoted as B)”. Moreover, the Kd in test [2] came to 0.62 nM. Besides, the “HRAS /KRAS” value in test [3] is “B (a compound having 3 or more and less than 10 is denoted as B)”. This molecule displayed an IC50 in test [4] of 66.2 nM.
Regarding `CCO[C@@H]1C[C@H]2C(=O)NC3(CCC3)C(=O)N(C)[C@@H](C3CCCC3)C(=O)N(C)[C@H](C(=O)N(C)C)CC(=O)N(C)[C@@H](CC)C(=O)N[C@@H]([C@@H](C)CC)C(=O)N(C)CC(=O)N(C)[C@H]3CCCCCN(C3=O)[C@@H](Cc3ccc(F)c(C)c3)C(=O)N(C)CC(=O)N[C@@H](CCc3cc(F)c(C(F)(F)F)c(F)c3)C(=O)N2C1` [PP0912], the “NRAS /KRAS” value in test [1] is “B (a compound having 3 or more and less than 10 is denoted as B)”. In test [2], this molecule yielded a Kd of 0.32 nM. In test [3], the “HRAS /KRAS” value is “B (a compound having 3 or more and less than 10 is denoted as B)”. Moreover, 40.5 nM corresponded to half-maximal inhibition in test [4] (IC50).
As to `CCO[C@@H]1C[C@H]2C(=O)NC3(CCC3)C(=O)N(C)[C@@H](C3CCCC3)C(=O)N(C)[C@H](C(=O)N(C)C)CC(=O)N(C)[C@@H](CC)C(=O)N[C@@H]([C@@H](C)CC)C(=O)N(C)CC(=O)N(C)[C@H]3CCCCCN(C3=O)[C@@H](Cc3nccs3)C(=O)N(C)CC(=O)N[C@@H](CCc3cc(F)c(C(F)(F)F)c(F)c3)C(=O)N2C1` [PP0913], the “NRAS /KRAS” value in test [1] was “B (a compound having 3 or more and less than 10 is denoted as B)”. This molecule also came in with a Kd in test [2] of 1.1 nM. For the same molecule, the “HRAS /KRAS” value in test [3] was “B (a compound having 3 or more and less than 10 is denoted as B)”. The IC50 in test [4] was 206 nM.
As to `CCO[C@@H]1C[C@H]2C(=O)NC3(CCC3)C(=O)N(C)[C@@H](C3CCCC3)C(=O)N(C)[C@H](C(=O)N3CCOCC3)CC(=O)N(C)[C@@H](CC(C)C)C(=O)N[C@@H]([C@@H](C)CC)C(=O)N(C)CC(=O)N(C)[C@H]3CCCCCN(C3=O)[C@@H](Cc3ccc(F)c(F)c3)C(=O)N(C)CC(=O)N[C@@H](CCc3cc(F)c(C(F)(F)F)c(F)c3)C(=O)N2C1` [PP0917], the “NRAS /KRAS” value in test [1] was “B (a compound having 3 or more and less than 10 is denoted as B)”. This molecule came in with a Kd in test [2] of 0.16 nM. In test [3], the “HRAS /KRAS” value is “B (a compound having 3 or more and less than 10 is denoted as B)”. This molecule also came in with an IC50 in test [4] of 25.2 nM.
Consider `CCO[C@@H]1C[C@H]2C(=O)NC3(CCC3)C(=O)N(C)[C@@H](C3CCCC3)C(=O)N(C)[C@H](C(=O)N3CCOCC3)CC(=O)N(C)[C@@H](CC(C)C)C(=O)N[C@@H]([C@@H](C)CC)C(=O)N(C)CC(=O)N(C)[C@H]3CCCCCN(C3=O)[C@@H](Cc3nccs3)C(=O)N(C)CC(=O)N[C@@H](CCc3cc(F)c(C(F)(F)F)c(F)c3)C(=O)N2C1` [PP0923], for which the “NRAS /KRAS” value in test [1] is “B (a compound having 3 or more and less than 10 is denoted as B)”. In test [2], this molecule registered a Kd of 1.6 nM. For the same molecule, the “HRAS /KRAS” value in test [3] is “B (a compound having 3 or more and less than 10 is denoted as B)”. In test [4], this molecule yielded an IC50 of 445 nM.
Regarding `CCO[C@@H]1C[C@H]2C(=O)NC3(CCC3)C(=O)N(C)[C@@H](C3CCCC3)C(=O)N(C)[C@H](C(=O)N(C)C)CC(=O)N(C)[C@@H](Cc3ccccc3C)C(=O)N[C@@H]([C@@H](C)CC)C(=O)N(C)CC(=O)N(C)[C@H]3CCCCCN(C3=O)[C@@H](Cc3ccc(C(F)(F)F)cc3)C(=O)N(C)CC(=O)N[C@@H](CCc3cc(F)c(C(F)(F)F)c(F)c3)C(=O)N2C1` [PP0941], in test [1], the “NRAS /KRAS” value is “B (a compound having 3 or more and less than 10 is denoted as B)”. In test [2], this molecule gave a dissociation constant (Kd) of 1.2 nM. Further, the “HRAS /KRAS” value in test [3] is “B (a compound having 3 or more and less than 10 is denoted as B)”. In test [4], this molecule yielded an IC50 of 63.9 nM.
With `CC[C@H](C)[C@@H]1NC(=O)[C@H](CC(C)C)N(C)C(=O)C[C@@H](C(=O)N2CCOCC2)N(CC)C(=O)[C@H](C2CCCC2)N(C)C(=O)C2(CCC2)NC(=O)[C@@H]2CC(F)(F)CN2C(=O)[C@H](CCc2cc(F)c(C(F)(F)F)c(F)c2)NC(=O)CN(C)C(=O)[C@H](Cc2ccc(C(F)(F)F)cc2)N2CCCCC[C@@H](C2=O)N(C)C(=O)CN(C)C1=O` [PP0954], the “NRAS /KRAS” value in test [1] was “A (a compound having 10 or more and less than 20 is denoted as A)”. The molecule also yielded a Kd in test [2] of 7.5 nM. In addition, the “HRAS /KRAS” value in test [3] is “A (a compound having 10 or more and less than 20 is denoted as A)”. In addition, in test [4], the midpoint of inhibition, the IC50, lay at 438 nM.
On to `CCO[C@@H]1C[C@H]2C(=O)NC(C)(C)C(=O)N(C)[C@@H](C3CCCC3)C(=O)N(CC)[C@H](C(=O)N3CCOCC3)CC(=O)N(C)[C@@H](CC(C)C)C(=O)N[C@@H]([C@@H](C)CC)C(=O)N(C)CC(=O)N(C)[C@H]3CCCCCN(C3=O)[C@@H](Cc3ccc(C(F)(F)F)cc3)C(=O)N(C)CC(=O)N[C@@H](CCc3cc(F)c(C(F)(F)F)c(F)c3)C(=O)N2C1` [PP0958], for which the “NRAS /KRAS” value in test [1] is “B (a compound having 3 or more and less than 10 is denoted as B)”. Also, in test [2], the Kd amounted to 7.5 nM. Also, in test [3], the “HRAS /KRAS” value was “B (a compound having 3 or more and less than 10 is denoted as B)”. Moreover, the IC50 in test [4] was determined as 1040 nM.
With `CC[C@H](C)[C@@H]1NC(=O)[C@H](CC)N(C)C(=O)C[C@@H](C(=O)N2CCOCC2)N(C)C(=O)[C@H](C2CCCC2)N(C)C(=O)C2(CCCC2)NC(=O)[C@@H]2CCCN2C(=O)[C@H](CCc2ccc(C(F)(F)F)c(Cl)c2)NC(=O)CN(C)C(=O)[C@H](Cc2ccc(F)cc2)N2CCCCC[C@@H](C2=O)N(C)C(=O)CN(C)C1=O` [PP0959], the “NRAS /KRAS” value in test [1] was “B (a compound having 3 or more and less than 10 is denoted as B)”. Further, the Kd in test [2] is 0.39 nM. The “HRAS /KRAS” value in test [3] is “B (a compound having 3 or more and less than 10 is denoted as B)”. For the same molecule, the midpoint of inhibition in test [4], the IC50, lay at 156 nM.
Turning to `CC[C@H](C)[C@@H]1NC(=O)[C@H](Cc2ccccc2)N(C)C(=O)C[C@@H](C(=O)N2CCOCC2)N(C)C(=O)[C@H](C2CCCC2)N(C)C(=O)C2(CCCC2)NC(=O)[C@@H]2CCCN2C(=O)[C@H](CCc2ccc(C(F)(F)F)c(Cl)c2)NC(=O)CN(C)C(=O)[C@H](Cc2ccc(F)cc2)N2CCCCC[C@@H](C2=O)N(C)C(=O)CN(C)C1=O` [PP0961], in test [1], the “NRAS /KRAS” value was “B (a compound having 3 or more and less than 10 is denoted as B)”. This molecule registered a Kd in test [2] of 0.62 nM. Moreover, the “HRAS /KRAS” value in test [3] was “B (a compound having 3 or more and less than 10 is denoted as B)”. This molecule also returned an IC50 in test [4] of 53.6 nM.
In the case of `CC[C@H](C)[C@@H]1NC(=O)[C@H](Cc2cccc(F)c2)N(C)C(=O)C[C@@H](C(=O)N2CCOCC2)N(C)C(=O)[C@H](C2CCCC2)N(C)C(=O)C2(CCCC2)NC(=O)[C@@H]2CCCN2C(=O)[C@H](CCc2ccc(C(F)(F)F)c(Cl)c2)NC(=O)CN(C)C(=O)[C@H](Cc2ccc(F)cc2)N2CCCCC[C@@H](C2=O)N(C)C(=O)CN(C)C1=O` [PP0962], in test [1], the “NRAS /KRAS” value was “B (a compound having 3 or more and less than 10 is denoted as B)”. The affinity in test [2], expressed as Kd, was 0.65 nM. Moreover, the “HRAS /KRAS” value in test [3] was “B (a compound having 3 or more and less than 10 is denoted as B)”. The molecule further returned an IC50 in test [4] of 83.9 nM.
Turning to `CC[C@H](C)[C@@H]1NC(=O)[C@H](Cc2cccc(Cl)c2)N(C)C(=O)C[C@@H](C(=O)N2CCOCC2)N(C)C(=O)[C@H](C2CCCC2)N(C)C(=O)C2(CCCC2)NC(=O)[C@@H]2CCCN2C(=O)[C@H](CCc2ccc(C(F)(F)F)c(Cl)c2)NC(=O)CN(C)C(=O)[C@H](Cc2ccc(F)cc2)N2CCCCC[C@@H](C2=O)N(C)C(=O)CN(C)C1=O` [PP0963], the “NRAS /KRAS” value in test [1] is “B (a compound having 3 or more and less than 10 is denoted as B)”. The Kd in test [2] was 0.78 nM. For the same molecule, the “HRAS /KRAS” value in test [3] is “B (a compound having 3 or more and less than 10 is denoted as B)”. Moreover, the IC50 in test [4] was determined as 100 nM.
`CC[C@H](C)[C@@H]1NC(=O)[C@H](CC(C)C)N(C)C(=O)C[C@@H](C(=O)N2CCOCC2)N(C)C(=O)[C@H](C2CCCC2)N(C)C(=O)C2(CCCC2)NC(=O)[C@@H]2CCCN2C(=O)[C@H](CCc2cc(F)c(C(F)(F)F)c(F)c2)NC(=O)CN(C)C(=O)[C@H](Cc2ccc(F)cc2)N2CCCCC[C@@H](C2=O)N(C)C(=O)CN(C)C1=O` [PP0964]: in test [1], the “NRAS /KRAS” value is “B (a compound having 3 or more and less than 10 is denoted as B)”. For the same molecule, the Kd in test [2] was 0.59 nM. In addition, the “HRAS /KRAS” value in test [3] is “B (a compound having 3 or more and less than 10 is denoted as B)”. In test [4], this molecule had an IC50 of 56.6 nM.
